Read-outs that look alike come from different tables or passages of the source.
Target: full length NS3/4a (Hepatitis C virus genotype 1b (isolate BK) (HCV), UniProt P26663)
Test: NS3 Protease Assay (Example A), FRET-based
Type: biochemical
Procedure: The HCV NS3 protease functions have been extensively studied and are considered as potential targets for antiviral therapy: see for example the many references listed in the introductory section of this application. Therefore, the activity of the compounds of the invention as anti-HCV agents was assessed using a full length HCV NS3 protease.
The protease activity of the full length NS3/4a was measured using a FRET-based assay utilizing a peptide substrate derived from the NS4A/B cleavage site (Anaspec) and labelled at one end with a quencher (QXL520) and at the other with a fluorophore (5-FAMsp). NS3/4a (produced in-house by literature methods) was incubated with test compounds and peptide substrate in 50 mM Tris pH8, 20 mM DTT, 1% CHAPS, 10% glycerol and 5% DMSO. The reaction was followed by monitoring the change in fluorescence on a Molecular Devices Gemini plate reader for 30 minutes at room temperature. Initial rates were calculated from the progress curves using SoftMax Pro (Molecular Devices). IC50 values were then calculated from replicate curves using Prism GraphPad software.

[1] = HCV NS3 protease assay, full length NS3/4a, read-out: Assay A IC50 (μM) average
[2] = read-out: IC50 against the protease activity of the full length NS3/4a
[3] = stated as IC50 less than 30 μM or at least 40% inhibition at a concentration of 100 μM, read-out: IC50 against the protease activity of the full length NS3/4a

Sequence of full length NS3/4a (P26663 1027-1657): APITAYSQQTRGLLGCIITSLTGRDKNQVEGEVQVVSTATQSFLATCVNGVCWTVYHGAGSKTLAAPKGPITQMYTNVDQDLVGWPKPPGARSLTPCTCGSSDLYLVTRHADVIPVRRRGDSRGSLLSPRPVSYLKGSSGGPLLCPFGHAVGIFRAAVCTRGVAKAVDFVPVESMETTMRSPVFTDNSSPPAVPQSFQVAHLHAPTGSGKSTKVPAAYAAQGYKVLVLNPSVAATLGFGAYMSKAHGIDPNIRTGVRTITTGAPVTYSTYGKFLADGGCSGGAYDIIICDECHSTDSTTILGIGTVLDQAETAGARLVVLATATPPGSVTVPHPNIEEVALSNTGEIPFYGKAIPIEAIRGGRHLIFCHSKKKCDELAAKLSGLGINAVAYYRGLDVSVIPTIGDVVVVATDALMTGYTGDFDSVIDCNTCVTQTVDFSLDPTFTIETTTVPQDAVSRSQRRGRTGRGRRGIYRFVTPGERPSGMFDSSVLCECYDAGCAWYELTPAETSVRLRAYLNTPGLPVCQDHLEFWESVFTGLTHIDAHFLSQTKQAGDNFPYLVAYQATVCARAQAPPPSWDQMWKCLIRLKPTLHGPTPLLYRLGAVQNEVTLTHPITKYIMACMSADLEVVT

SMILES	IC50 [1] [µM]	IC50 [2] [µM]	further results
CCC(NC1CCCC1C(N)=O)c1ccc(Cl)c(C(=O)c2ccc(N)nc2)c1F (single isomer, unassigned) [Example 126, 2-{[1-{3-[(6-aminopyridin-3-yl)carbonyl]-4-chloro-2-fluorophenyl}propyl]amino} cyclopentane-1-carboxamide]	0.12	< 1	
CCC(NC1CCCC1C(N)=O)c1ccc(Cl)c(C(=O)c2ccc(N)nc2)c1F (single isomer, unassigned) [Example 127, 2-{[1-{3-[(6-aminopyridin-3-yl)carbonyl]-4-chloro-2-fluorophenyl}propyl]amino} cyclopentane-1-carboxamide]	1.6	1 to 5	
CCC(NC1CCCC1C(N)=O)c1ccc(Cl)c(C(=O)c2ccc(N)nc2)c1F (single isomer, unassigned) [Example 161, 2-{[1-{3-[(6-aminopyridin-3-yl)carbonyl]-4-chloro-2-fluorophenyl}propyl]amino} cyclopentane-1-carboxamide]			inhibition at 10 µM (@ 10 uM): 60%; IC50 [3]: < 30 µM
CCC(NC[C@H](C)C(N)=O)c1ccc(Cl)c(C(=O)c2cccnc2)c1F (stereo in doubt) [Example 175, (2S)-3-{[(1R)-1-{4-chloro-2-fluoro-3-[(pyridin-3-yl)carbonyl]phenyl}-propyl]amino}-2-methylpropanamide]	1.1	1 to 5	
CC[C@@H](N)c1ccc(Cl)c(C(=O)c2ccc(O)cc2)c1F (stereo in doubt) [Example 193, [3-(1-Amino-propyl)-6-chloro-2-fluoro-phenyl]-(4-hydroxy-phenyl)-methanone]	0.31	< 1	
CC[C@@H](N)c1ccc(Cl)c(C(=O)c2ccc(N)nc2)c1F [Example 1, 5-({3-[(1R)-1-aminopropyl]-6-chloro-2-fluorophenyl}carbonyl)-pyridin-2-amine]	0.089	< 1	
CC[C@@H](N)c1ccc(Cl)c(C(=O)c2cccnc2)c1F [Example 2, (1R)-1-{4-chloro-2-fluoro-3-[(pyridin-3-yl)carbonyl]phenyl}-propan-1-amine]	1.4	1 to 5	
CC[C@@H](N)c1ccc(Cl)c(C(=O)c2cnc(N)cn2)c1F [Example 3, 5-({3-[(1R)-1-aminopropyl]-6-chloro-2-fluorophenyl}carbonyl)-pyrazin-2-amine]	1.3	1 to 5	
CC[C@@H](N)c1ccc(Cl)c(C(=O)c2ccc(N)cn2)c1F [Example 5, 6-({3-[(1R)-1-aminopropyl]-6-chloro-2-fluorophenyl}carbonyl)-pyridin-3-amine]		1 to 5	inhibition at 3 µM (@ 3 uM): 55%
CC[C@H](N)c1ccc(Cl)c(C(=O)c2ccccc2)c1F [Example 6, (1S)-1-(3-benzoyl-4-chloro-2-fluorophenyl)propan-1-amine]		< 1	inhibition at 0.3 µM (@ 0.3 uM): 80%
CC[C@@H](N)c1ccc(Cl)c(C(=O)c2cccc(F)c2)c1F [Example 7, (1R)-1-{4-chloro-2-fluoro-3-[(3-fluorophenyl)carbonyl]-phenyl}propan-1-amine]	0.38	< 1	
CC[C@@H](N)c1ccc(Cl)c(C(=O)c2ccc(F)cc2)c1F [Example 8, (1R)-1-{4-chloro-2-fluoro-3-[(4-fluorophenyl)carbonyl]-phenyl}propan-1-amine]	0.19	< 1	
CC[C@@H](N)c1ccc(Cl)c(C(=O)c2ccncn2)c1F [Example 10, (1R)-1-{4-chloro-2-fluoro-3-[(pyrimidin-4-yl)carbonyl]phenyl}-propan-1-amine]	3.5	1 to 5	
CC[C@@H](N)c1ccc(Cl)c(C(=O)c2cncnc2)c1F [Example 12, (1R)-1-{4-chloro-2-fluoro-3-[(pyrimidin-5-yl)carbonyl]phenyl}-propan-1-amine]			inhibition at 30 µM: 47%; IC50 [3]: < 30 µM
CC[C@@H](N)c1ccc(Cl)c(C(=O)c2ccc(F)c(F)c2)c1F [Example 13, (1R)-1-{4-chloro-3-[(3,4-difluorophenyl)carbonyl]-2-fluorophenyl}propan-1-amine]	0.83	< 1	
CC[C@@H](N)c1ccc(Cl)c(C(=O)c2ccccn2)c1F [Example 14, (1R)-1-{4-chloro-2-fluoro-3-[(pyridin-2-yl)carbonyl]phenyl}propan-1-amine]	2.5	1 to 5	
CC[C@@H](N)c1ccc(Cl)c(C(=O)c2ccncc2)c1F [Example 15, (1R)-1-{4-chloro-2-fluoro-3-[(pyridin-4-yl)carbonyl]phenyl}propan-1-amine]	0.84	< 1	
CC[C@@H](N)c1ccc(Cl)c(C(=O)c2ccns2)c1F [Example 16, (1R)-1-{4-chloro-2-fluoro-3-[(1,2-thiazol-5-yl)carbonyl]phenyl}propan-1-amine]	0.47	< 1	

SMILES	IC50 [1] [µM]	IC50 [2] [µM]	further results
CC[C@@H](N)c1ccc(Cl)c(C(=O)c2cncc(OC)c2)c1F [Example 17, (1R)-1-{4-chloro-2-fluoro-3-[(5-methoxypyridin-3-yl)carbonyl]phenyl}propan-1-amine]			inhibition at 100 µM (@ 100 uM): 65%
CC[C@@H](N)c1ccc(Cl)c(C(=O)c2cccc(C#N)c2)c1F [Example 18, 3-({3-[(1R)-1-aminopropyl]-6-chloro-2-fluorophenyl}carbonyl)benzonitrile]	0.62	< 1	
CC[C@@H](N)c1ccc(Cl)c(C(=O)c2ccc(C(=O)O)nc2)c1F [Example 19, 5-({3-[(1R)-1-aminopropyl]-6-chloro-2-fluorophenyl}carbonyl)pyridine-2-carboxylic acid]	20		IC50 [3]: < 30 µM
CC[C@@H](N)c1ccc(Cl)c(C(=O)c2nccs2)c1F [Example 20, (1R)-1-{4-chloro-2-fluoro-3-[(1,3-thiazol-2-yl)carbonyl]phenyl}propan-1-amine]	0.82	< 1	
CC[C@@H](N)c1ccc(Cl)c(C(=O)c2cc(C)on2)c1F [Example 21, (1R)-1-{4-chloro-2-fluoro-3-[(5-methyl-1,2-oxazol-3-yl)carbonyl]phenyl}propan-1-amine]	1	1 to 5	
CC[C@@H](N)c1ccc(Cl)c(C(=O)c2ccc(C(N)=O)nc2)c1F [Example 22, 5-({3-[(1R)-1-aminopropyl]-6-chloro-2-fluorophenyl}carbonyl)pyridine-2-carboxamide]	1.8	1 to 5	
[2H]C([2H])([2H])C([2H])([2H])[C@@H](N)c1ccc(Cl)c(C(=O)c2ccccc2)c1F [Example 23, (1R)-1-(3-benzoyl-4-chloro-2-fluorophenyl)(2,2,3,3,3-D)propan-1-amine]	0.11	< 1	
[2H]C([2H])([2H])C([2H])([2H])[C@H](N)c1ccc(Cl)c(C(=O)c2ccccc2)c1F [Example 24, (1S)-1-(3-benzoyl-4-chloro-2-fluorophenyl)(2,2,3,3,3-D)propan-1-amine]	0.075	< 1	
CC[C@@H](N)c1ccc(Cl)c(C(=O)c2ccc[n+]([O-])c2)c1F [Example 25, [3-((R)-1-Amino-propyl)-6-chloro-2-fluoro-phenyl]-(1-oxy-pyridin-3-yl)-methanone]			inhibition at 30 µM: 59%; IC50 [3]: < 30 µM
CC[C@H](N)c1ccc(Cl)c(C(=O)c2cccnc2)c1F [Example 26, (1S)-1-{4-chloro-2-fluoro-3-[(pyridin-3-yl)carbonyl]phenyl}propan-1-amine]	0.63	< 1	
N[C@@H](c1ccc(Cl)c(C(=O)c2ccc(F)cc2)c1F)C1CC1 [Example 27, (R)-{4-chloro-2-fluoro-3-[(4-fluorophenyl)carbonyl]phenyl}(cyclopropyl)methanamine]	0.22	< 1	
N[C@@H](c1ccc(Cl)c(C(=O)c2cccnc2)c1F)C1CC1 [Example 28, (R)-{4-chloro-2-fluoro-3-[(pyridin-3-yl)carbonyl]phenyl}(cyclopropyl)methanamine]	1.5	1 to 5	
CC[C@@H](N)c1ccc(Cl)c(C(=O)c2ccc(Cl)nc2)c1F [Example 29, (1R)-1-{4-chloro-3-[(6-chloropyridin-3-yl)carbonyl]-2-fluorophenyl}propan-1-amine]	0.5	< 1	
CC[C@H](N)c1ccc(Cl)c(C(=O)c2ccc(Cl)nc2)c1F [Example 30, (1S)-1-{4-chloro-3-[(6-chloropyridin-3-yl)carbonyl]-2-fluorophenyl}propan-1-amine]	0.21	< 1	
CC[C@H](N)c1ccc(Cl)c(C(=O)c2ccc(N)nc2)c1F [Example 31, 5-({3-[(1S)-1-aminopropyl]-6-chloro-2-fluorophenyl}carbonyl)pyridin-2-amine]	0.18	< 1	
N#Cc1ccc(C(=O)c2c(Cl)ccc([C@H](N)C3CC3)c2F)cc1 [Example 32, 4-({3-[(R)-amino(cyclopropyl)methyl]-6-chloro-2-fluorophenyl}carbonyl)benzonitrile]	0.058	< 1	
N[C@@H](c1ccc(Cl)c(C(=O)c2ccncc2)c1F)C1CC1 [Example 33, (R)-{4-chloro-2-fluoro-3-[(pyridin-4-yl)carbonyl]phenyl}(cyclopropyl)methanamine]	0.71	< 1	

— patent US9145354B2, “Pharmaceutical compounds” (priority 2011, dated 2015)
